Literature values as cited in patent US6369078B1, “Solenopsin derivatives and analogues as fire ant suppressants” (priority 1999, dated 2002).

Legend:
fire ants = conditions: stomach insecticide combined with bait
[1] = test system: blood and tissue- and fluid-feeding parasites
[2] = as much as 6000 units over a shorter time period

SMILES | effectiveness against fire ants (fire ants) | units equivalent to 250 units of the whole body extracts ([1]; synthetic version against whole body extract) [units] | elimination of blood and tissue- and fluid-feeding parasites ([1]; synthetically produced, oral) | ill effects [2]
ClC1(Cl)C2(Cl)C3(Cl)C4(Cl)C(Cl)(Cl)C5(Cl)C3(Cl)C1(Cl)C5(Cl)C24Cl (stereo not shown) [Mirex] | more than 95% |  |  | 
CCCCCCCCCCC[C@H]1CCC[C@H](C)N1 (relative stereo) [Solenopsin A, trans-2-methyl 6-n-undecylpiperidine] |  | 1500 | complete elimination | did not cause any ill effects
